Assay results from ChEMBL document CHEMBL1123770, “Systematic synthesis and biological evaluation of alpha- and beta-D-lyxofuranosyl nucleosides of the five naturally occurring nucleic acid bases” (1987).
Values after ≈ are worked out from the molar mass of the structure shown.

What was measured:
Vero [1] = assay: Minimum inhibitory concentration (MIC) required to reduce virus-induced cytopathogenicity by 50% against Reo virus-1 in African green monkey kidney (Vero B)cells; format: functional, Chlorocebus sabaeus
Vero [2] = assay: Minimum inhibitory concentration (MIC) required to reduce virus-induced cytopathogenicity by 50% against Coxsackie virus B4 in African green monkey kidney (Vero B)cells; format: functional, Chlorocebus sabaeus
WI-38 [3] = assay: Minimum inhibitory concentration (MIC) required to reduce virus-induced cytopathogenicity by 50% against Rhinovirus-1A in human diploid (WI-38)cells; format: functional
Vero [4] = assay: Minimum inhibitory concentration (MIC) required to reduce virus-induced cytopathogenicity by 50% against Parainfluenza virus-3 in African green monkey kidney (Vero B)cells; format: functional, Chlorocebus sabaeus
Oryctolagus cuniculus [5] = species on record: Oryctolagus cuniculus; assay: Minimum inhibitory concentration (MIC) required to reduce virus-induced cytopathogenicity by 50% against G strain of Herpes simplex virus-2 in primary rabbit kidney cells; format: functional
Oryctolagus cuniculus [6] = species on record: Oryctolagus cuniculus; assay: Minimum inhibitory concentration (MIC) required to reduce virus-induced cytopathogenicity by 50% against Vaccinia virus in primary rabbit kidney cells; format: functional
WI-38 [7] = assay: Minimum inhibitory concentration (MIC) required to reduce virus-induced cytopathogenicity by 50% against Rhinovirus 9 in human diploid (WI-38)cells; format: functional
HeLa [8] = assay: Minimum inhibitory concentration (MIC) required to reduce virus-induced cytopathogenicity by 50% against Coxsackie virus B4 in HeLa cells; format: functional; details: Homo sapiens
HeLa [9] = assay: Minimum cytotoxic concentration (MCC) required to cause a microscopically detectable alteration of host cell morphology, when incubated with HeLa cells; format: functional; details: Homo sapiens
HeLa [10] = assay: Minimum inhibitory concentration (MIC) required to reduce virus-induced cytopathogenicity by 50% against Vesicular stomatitis virus in HeLa cells; format: functional; details: Homo sapiens
Vero [11] = assay: Minimum cytotoxic concentration (MCC) required to cause a microscopically detectable alteration of host cell morphology, when incubated with Vero B cells; format: functional; details: Chlorocebus sabaeus
[12] = Minimum cytotoxic concentration (MCC) required to cause a microscopically detectable alteration of host cell morphology, when incubated with PRK cells; format: functional; details: Oryctolagus cuniculus
Vero [13] = assay: Minimum inhibitory concentration (MIC) required to reduce virus-induced cytopathogenicity by 50% against forest virus in African green monkey kidney (Vero B)cells; format: functional; details: Chlorocebus sabaeus
WI-38 [14] = assay: Minimum cytotoxic concentration (MCC) required to cause a microscopically detectable alteration of host cell morphology, when incubated with WI-38 cells; format: functional; details: Homo sapiens
Oryctolagus cuniculus [15] = species on record: Oryctolagus cuniculus; assay: Minimum inhibitory concentration (MIC) required to reduce virus-induced cytopathogenicity by 50% against KOS strain of Herpes simplex virus-1 in primary rabbit kidney cells; format: functional
Oryctolagus cuniculus [16] = species on record: Oryctolagus cuniculus; assay: Minimum inhibitory concentration (MIC) required to reduce virus-induced cytopathogenicity by 50% against Vesicular stomatitis virus in primary rabbit kidney cells; format: functional
HeLa [17] = assay: Minimum inhibitory concentration (MIC) required to reduce virus-induced cytopathogenicity by 50% against Polio virus-1 in HeLa cells; format: functional; details: Homo sapiens
Vero [18] = assay: Minimum inhibitory concentration (MIC) required to reduce virus-induced cytopathogenicity by 50% against Sindbis virus in African green monkey kidney (Vero B)cells; format: functional; details: Chlorocebus sabaeus
[19] = Chlorocebus sabaeus, read-out: MIC
[20] = Oryctolagus cuniculus, read-out: MIC

Row | SMILES | MIC (WI-38 [3]) [µg/mL] | MIC (HeLa [8]) [µg/mL] | MIC (Vero [1]; [19]) [µg/mL] | MCC (HeLa [9]) [µg/mL] | MIC (HeLa [10]) [µg/mL] | MCC (Vero [11]) [µg/mL] | MIC (Vero [2]; [19]) [µg/mL] | MCC [12] [µg/mL] | MIC (Vero [13]) [µg/mL] | MCC (WI-38 [14]) [µg/mL] | MIC (Vero [4]; [19]) [µg/mL] | MIC (Oryctolagus cuniculus [15]) [µg/mL] | MIC (Oryctolagus cuniculus [5]; [20]) [µg/mL] | MIC (Oryctolagus cuniculus [16]) [µg/mL] | MIC (HeLa [17]) [µg/mL] | MIC (Vero [18]) [µg/mL] | MIC (Oryctolagus cuniculus [6]; [20]) [µg/mL] | MIC (WI-38 [7]; Homo sapiens, read-out: MIC) [µg/mL] | other results
1 | Nc1ncnc2c1ncn2[C@@H]1O[C@H](CO)[C@H](O)[C@@H]1O (stereo in doubt; 22d) | > 400 |  |  |  |  |  |  |  |  |  |  |  |  |  |  |  |  |  | MIC (Vero [1]): >200 µg/mL; MIC (Vero [2]): 100 µg/mL (≈ 374 µM); MIC (Vero [4]): >200 µg/mL; MIC (Oryctolagus cuniculus [5]): >400 µg/mL; MIC (Oryctolagus cuniculus [6]): 200 µg/mL (≈ 748 µM); MIC (WI-38 [7]): >400 µg/mL
2 | Nc1ncnc2c1ccn2[C@@H]1O[C@H](CO)[C@@H](O)[C@H]1O [TUBERCIDIN] | 0.02 (≈ 0.0751 µM) | 0.2 (≈ 0.751 µM) | > 0.1 | > 1 | 0.07 (≈ 0.263 µM) | > 0.4 | 0.2 (≈ 0.751 µM) | 1 | > 0.4 | > 4 | > 0.1 | > 0.4 | > 0.4 | 0.07 (≈ 0.263 µM) | 0.07 (≈ 0.263 µM) | 0.2 (≈ 0.751 µM) | 0.2 (≈ 0.751 µM) | > 4 | 
3 | NC(=O)c1ncn([C@@H]2O[C@H](CO)[C@@H](O)[C@H]2O)n1 [RIBAVIRIN] | 150 (≈ 614 µM) | 70 (≈ 287 µM) | 70 (≈ 287 µM) | > 200 | 20 (≈ 81.9 µM) | > 400 | 10 (≈ 40.9 µM) | > 400 | > 400 | > 400 | 70 (≈ 287 µM) | > 400 | > 400 | 150 (≈ 614 µM) | 70 (≈ 287 µM) | 70 (≈ 287 µM) | 20 (≈ 81.9 µM) | > 400 | 
4 | Nc1nc2c(ncn2[C@@H]2O[C@H](CO)[C@H](O)[C@@H]2O)c(=O)[nH]1 | > 400 | > 400 | > 400 | > 400 |  | > 400 | > 400 | > 400 | > 400 | > 400 | > 400 | > 400 | 400 (≈ 1410 µM) |  |  | > 400 | 100 (≈ 353 µM) | > 400 | 
5 | Nc1ccn([C@H]2O[C@H](CO)[C@H](O)[C@@H]2O)c(=O)n1 | > 400 | > 400 | > 400 | > 400 |  | > 400 | > 400 | > 400 | > 400 | > 400 | > 400 | > 400 | > 400 |  |  | > 400 |  | > 400 | 
6 | O=c1ccn([C@H]2O[C@H](CO)[C@H](O)[C@@H]2O)c(=O)[nH]1 | > 400 | > 400 | > 200 | > 400 |  | > 400 | > 400 | > 400 | > 400 | > 400 | > 400 | > 400 | > 400 |  |  | > 400 |  | > 400 | 
